Assay results from ChEMBL document CHEMBL2406999, “Vialinin A is a ubiquitin-specific peptidase inhibitor” (Bioorg Med Chem Lett, 2013).
Activity calls are given as the source filed them. The calls are words filed in the database; no cut-off is given here. Square brackets hold non-standard residues; d marks the D form. Peptide text beside a SMILES is read from it. * marks the point of attachment. Nle = CCCC[C@H](N)C(=O)O; Cbz = O=C(OCc1ccccc1)*

Experiments:
[1] = target: T1, Ubiquitin carboxyl-terminal hydrolase 5 (Homo sapiens) (UniProt P45974); assay: Inhibition of human USP5 using Ub4 as substrate at 50 uM after 10 mins by SDS-PAGE analysis
T1 sequence (whole entry): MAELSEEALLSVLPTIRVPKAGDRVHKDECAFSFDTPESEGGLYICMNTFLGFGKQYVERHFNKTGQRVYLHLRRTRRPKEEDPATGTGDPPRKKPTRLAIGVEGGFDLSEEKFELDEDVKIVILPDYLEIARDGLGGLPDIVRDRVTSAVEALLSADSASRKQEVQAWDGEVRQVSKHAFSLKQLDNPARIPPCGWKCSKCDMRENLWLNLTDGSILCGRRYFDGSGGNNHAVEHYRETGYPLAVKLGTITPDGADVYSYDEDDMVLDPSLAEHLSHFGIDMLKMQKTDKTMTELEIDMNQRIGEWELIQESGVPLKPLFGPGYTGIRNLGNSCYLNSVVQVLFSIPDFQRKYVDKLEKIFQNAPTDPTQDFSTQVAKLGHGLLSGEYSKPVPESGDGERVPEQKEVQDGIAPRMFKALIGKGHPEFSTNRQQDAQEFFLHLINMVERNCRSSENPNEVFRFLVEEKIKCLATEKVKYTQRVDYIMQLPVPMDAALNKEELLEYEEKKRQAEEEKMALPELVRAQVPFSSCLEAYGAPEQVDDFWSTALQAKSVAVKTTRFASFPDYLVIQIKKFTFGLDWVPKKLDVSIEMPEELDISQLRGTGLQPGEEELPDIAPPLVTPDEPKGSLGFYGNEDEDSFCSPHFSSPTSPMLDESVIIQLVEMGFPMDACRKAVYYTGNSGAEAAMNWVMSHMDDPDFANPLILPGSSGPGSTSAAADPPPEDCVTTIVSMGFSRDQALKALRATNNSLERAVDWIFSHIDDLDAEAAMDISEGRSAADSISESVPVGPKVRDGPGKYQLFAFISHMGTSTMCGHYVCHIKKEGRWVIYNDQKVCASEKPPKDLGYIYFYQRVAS

[2] = target: T1, Ubiquitin carboxyl-terminal hydrolase 5 (Homo sapiens); assay: Binding affinity to human recombinant USP5 by SDS-PAGE analysis
[3] = target: T2, Ubiquitin carboxyl-terminal hydrolase 5 (Homo sapiens, UniProt P45974); assay: Inhibition of USP5 in human Z138 cells after 1 hr by immunoblotting analysis; type: cell-based
T2 sequence (P45974 whole entry): T1 sequence (whole entry)

[4] = target: Ubiquitin carboxyl-terminal hydrolase 9X (Homo sapiens, UniProt Q93008); assay: Inhibition of USP9x in human Z138 cells after 1 hr by immunoblotting analysis; type: cell-based
Sequence of Ubiquitin carboxyl-terminal hydrolase 9X (Q93008 whole entry): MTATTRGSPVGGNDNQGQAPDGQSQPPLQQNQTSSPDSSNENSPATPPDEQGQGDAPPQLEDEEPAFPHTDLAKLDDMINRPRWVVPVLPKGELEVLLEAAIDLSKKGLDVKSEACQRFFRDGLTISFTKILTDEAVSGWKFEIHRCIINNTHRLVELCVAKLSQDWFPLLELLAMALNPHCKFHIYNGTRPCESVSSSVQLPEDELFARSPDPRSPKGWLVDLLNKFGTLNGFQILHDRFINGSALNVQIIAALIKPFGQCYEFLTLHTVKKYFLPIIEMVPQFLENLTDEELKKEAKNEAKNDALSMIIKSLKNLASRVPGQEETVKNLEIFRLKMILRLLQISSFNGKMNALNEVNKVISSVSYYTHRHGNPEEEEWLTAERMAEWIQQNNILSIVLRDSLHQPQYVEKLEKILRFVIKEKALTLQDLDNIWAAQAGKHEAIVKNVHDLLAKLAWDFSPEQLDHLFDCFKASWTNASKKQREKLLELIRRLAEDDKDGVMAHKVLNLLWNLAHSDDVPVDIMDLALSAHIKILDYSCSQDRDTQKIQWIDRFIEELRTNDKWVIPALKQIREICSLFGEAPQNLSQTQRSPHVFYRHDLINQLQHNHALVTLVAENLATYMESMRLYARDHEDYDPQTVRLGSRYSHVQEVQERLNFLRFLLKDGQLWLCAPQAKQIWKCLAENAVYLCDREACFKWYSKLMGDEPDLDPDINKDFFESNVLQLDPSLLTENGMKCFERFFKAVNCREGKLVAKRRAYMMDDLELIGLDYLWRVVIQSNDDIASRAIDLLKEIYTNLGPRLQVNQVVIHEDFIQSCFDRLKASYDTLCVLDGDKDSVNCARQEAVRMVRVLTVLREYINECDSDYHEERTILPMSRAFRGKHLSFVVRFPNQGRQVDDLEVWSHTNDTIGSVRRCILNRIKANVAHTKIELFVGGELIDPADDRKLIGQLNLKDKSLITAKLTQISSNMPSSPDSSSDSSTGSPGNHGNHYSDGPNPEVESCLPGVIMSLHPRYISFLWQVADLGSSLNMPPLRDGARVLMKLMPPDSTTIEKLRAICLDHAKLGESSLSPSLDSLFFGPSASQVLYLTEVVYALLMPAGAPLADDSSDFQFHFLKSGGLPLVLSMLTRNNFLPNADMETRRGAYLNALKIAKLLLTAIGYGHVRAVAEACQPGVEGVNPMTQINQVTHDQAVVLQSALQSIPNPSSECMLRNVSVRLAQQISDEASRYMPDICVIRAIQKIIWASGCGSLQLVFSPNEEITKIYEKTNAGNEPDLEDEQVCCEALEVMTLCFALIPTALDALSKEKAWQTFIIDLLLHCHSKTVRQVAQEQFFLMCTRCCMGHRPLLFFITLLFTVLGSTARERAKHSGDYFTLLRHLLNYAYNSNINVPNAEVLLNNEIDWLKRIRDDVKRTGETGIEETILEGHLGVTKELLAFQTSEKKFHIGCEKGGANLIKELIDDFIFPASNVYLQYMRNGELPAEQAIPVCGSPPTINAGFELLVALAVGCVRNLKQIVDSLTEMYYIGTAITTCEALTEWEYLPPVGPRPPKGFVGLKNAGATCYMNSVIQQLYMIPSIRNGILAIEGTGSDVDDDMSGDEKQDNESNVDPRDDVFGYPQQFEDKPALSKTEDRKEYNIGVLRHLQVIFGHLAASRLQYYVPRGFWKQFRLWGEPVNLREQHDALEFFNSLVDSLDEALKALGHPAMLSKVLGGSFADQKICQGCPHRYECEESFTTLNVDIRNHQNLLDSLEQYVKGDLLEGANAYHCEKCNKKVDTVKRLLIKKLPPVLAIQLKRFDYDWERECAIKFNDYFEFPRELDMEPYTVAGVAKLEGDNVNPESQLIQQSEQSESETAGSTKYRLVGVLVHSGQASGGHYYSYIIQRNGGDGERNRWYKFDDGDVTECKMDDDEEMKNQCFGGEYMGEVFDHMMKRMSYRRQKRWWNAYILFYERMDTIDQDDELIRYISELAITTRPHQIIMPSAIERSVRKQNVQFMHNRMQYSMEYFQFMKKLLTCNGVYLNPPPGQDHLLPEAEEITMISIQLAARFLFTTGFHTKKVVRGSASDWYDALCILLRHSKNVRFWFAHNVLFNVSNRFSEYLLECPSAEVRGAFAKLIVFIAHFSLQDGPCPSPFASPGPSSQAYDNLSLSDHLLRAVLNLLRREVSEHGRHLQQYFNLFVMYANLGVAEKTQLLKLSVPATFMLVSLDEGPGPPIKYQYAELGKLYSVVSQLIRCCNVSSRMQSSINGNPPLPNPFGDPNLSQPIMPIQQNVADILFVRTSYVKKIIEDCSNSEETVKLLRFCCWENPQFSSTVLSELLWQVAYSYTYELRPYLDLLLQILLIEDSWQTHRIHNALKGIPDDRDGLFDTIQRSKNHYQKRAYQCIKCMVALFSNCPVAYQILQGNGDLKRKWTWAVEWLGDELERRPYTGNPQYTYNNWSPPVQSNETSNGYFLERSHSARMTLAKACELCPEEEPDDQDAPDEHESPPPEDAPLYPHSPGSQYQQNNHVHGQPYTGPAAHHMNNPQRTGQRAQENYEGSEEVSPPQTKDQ

[5] = target: T3, Ubiquitin carboxyl-terminal hydrolase isozyme L1 (Homo sapiens, UniProt P09936); assay: Inhibition of UCH-L1 in human Z138 cells after 1 hr by immunoblotting analysis; type: cell-based
T3 sequence (P09936 whole entry): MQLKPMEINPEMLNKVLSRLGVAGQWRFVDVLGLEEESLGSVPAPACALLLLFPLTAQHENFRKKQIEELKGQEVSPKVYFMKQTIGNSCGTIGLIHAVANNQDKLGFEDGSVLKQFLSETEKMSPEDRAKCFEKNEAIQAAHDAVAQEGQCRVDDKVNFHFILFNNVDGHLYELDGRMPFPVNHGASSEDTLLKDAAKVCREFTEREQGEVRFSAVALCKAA

[6] = target: T1, Ubiquitin carboxyl-terminal hydrolase 5 (Homo sapiens); assay: Inhibition of human USP5 using Ub-AMC as substrate at 1 to 20 uM after 10 mins by fluorometric analysis
[7] = target: Ubiquitin carboxyl-terminal hydrolase isozyme L1 (Homo sapiens) (UniProt P09936); assay: Inhibition of human UCH-L1 using Ub-AMC as substrate at 1 to 20 uM after 10 mins by fluorometric analysis
[8] = target: T1, Ubiquitin carboxyl-terminal hydrolase 5 (Homo sapiens); assay: Competitive binding affinity to human recombinant USP5 after 1 hr by SDS-PAGE analysis in presence of biotin-DMT
[9] = target: T4, Ubiquitin carboxyl-terminal hydrolase 4 (Homo sapiens) (UniProt Q13107); assay: Inhibition of human USP4 using Ub-AMC as substrate at 1 to 20 uM after 10 mins by fluorometric analysis
T4 sequence (whole entry): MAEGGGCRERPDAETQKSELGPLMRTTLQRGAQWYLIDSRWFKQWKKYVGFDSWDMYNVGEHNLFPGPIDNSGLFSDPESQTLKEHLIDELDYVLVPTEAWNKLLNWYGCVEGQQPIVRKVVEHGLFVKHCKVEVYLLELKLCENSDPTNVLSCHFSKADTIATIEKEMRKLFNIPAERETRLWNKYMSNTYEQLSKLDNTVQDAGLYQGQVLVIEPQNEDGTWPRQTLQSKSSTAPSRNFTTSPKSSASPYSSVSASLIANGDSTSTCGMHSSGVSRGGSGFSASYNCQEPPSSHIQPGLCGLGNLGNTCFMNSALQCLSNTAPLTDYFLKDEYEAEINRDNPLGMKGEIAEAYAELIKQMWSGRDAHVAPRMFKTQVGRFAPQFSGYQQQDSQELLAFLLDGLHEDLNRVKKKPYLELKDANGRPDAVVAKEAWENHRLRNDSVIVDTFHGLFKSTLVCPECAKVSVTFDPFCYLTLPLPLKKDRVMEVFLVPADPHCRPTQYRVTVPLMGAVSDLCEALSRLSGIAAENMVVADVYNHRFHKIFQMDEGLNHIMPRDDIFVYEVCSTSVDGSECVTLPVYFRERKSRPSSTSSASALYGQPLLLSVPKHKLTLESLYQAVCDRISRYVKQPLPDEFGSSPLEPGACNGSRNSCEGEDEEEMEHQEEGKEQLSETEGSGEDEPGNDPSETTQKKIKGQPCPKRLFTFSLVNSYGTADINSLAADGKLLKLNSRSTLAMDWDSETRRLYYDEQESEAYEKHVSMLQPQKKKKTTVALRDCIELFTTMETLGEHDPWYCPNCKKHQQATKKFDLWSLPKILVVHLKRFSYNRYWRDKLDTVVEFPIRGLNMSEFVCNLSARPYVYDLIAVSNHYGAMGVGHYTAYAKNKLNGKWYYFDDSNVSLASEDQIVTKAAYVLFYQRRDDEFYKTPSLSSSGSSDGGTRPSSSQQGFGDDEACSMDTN

[10] = target: T1, Ubiquitin carboxyl-terminal hydrolase 5 (Homo sapiens); assay: Inhibition of wild type human USP5 expressed in Escherichia coli BL21(DE3) using K48-linked tetraubiquitin as substrate assessed as substrate hydrolysis at 20 uM after 15 mins by SDS-PAGE analysis
[11] = target: T4, Ubiquitin carboxyl-terminal hydrolase 4 (Homo sapiens); assay: Binding affinity to human USP4 after 1 hr by SDS-PAGE analysis
[12] = target: T1, Ubiquitin carboxyl-terminal hydrolase 5 (Homo sapiens); assay: Inhibition of wild type human USP5 expressed in Escherichia coli BL21(DE3) using K48-linked tetraubiquitin as substrate assessed as substrate hydrolysis at 5 to 50 uM after 15 mins by SDS-PAGE analysis
[13] = system: RBL-2H3; assay: Binding affinity to USP5 in rat RBL2H3 cell extracts at 1 to 100 uM by SDS-PAGE analysis; type: cell-free
[14] = target: Ubiquitin carboxyl-terminal hydrolase isozyme L1 (Homo sapiens) (UniProt P09936); assay: Binding affinity to human UCH-L1 after 1 hr by SDS-PAGE analysis

## CCCC[C@@H](C=O)NC(=O)[C@H](CC(C)C)NC(=O)[C@H](CC(C)C)NC(C)=O (Ac-Leu-Leu-[Nle]-aldehyde)
[1]
  inhibition: inactive

## O=C(CCCC[C@@H]1SC[C@@H]2NC(=O)N[C@@H]21)NCCCCCCn1cc(COc2ccccc2)nn1
[2]
  Activity: inactive

## COc1ccc(C(=O)ONC(=O)CNC(=O)[C@H](Cc2ccccc2)NC(=O)OCc2ccccc2)cc1
[1]
  inhibition: inactive

## CC(C)C[C@H](NC(=O)OCc1ccccc1)C(=O)N[C@H](C=O)Cc1ccccc1 (Cbz-Leu-Phe-aldehyde)
[1]
  inhibition: inactive

## CCC[C@H](NC(=O)/C(C#N)=C/c1cccc(Br)n1)c1ccccc1
[3]
  IC50: 3 µM
[4]
  IC50: 3 µM
[5]
  IC50: 3 µM

## Cc1c(C)c(-c2ccc(O)cc2)c(O)c(O)c1-c1ccc(O)cc1
[6]
  inhibition: Active
[7]
  inhibition: Active
[8]
  Activity: Active
[9]
  inhibition: Active
[10]
  inhibition: Active

## Cc1c(C)c(-c2ccc(OCc3cn(CCCCCCNC(=O)CCCC[C@@H]4SC[C@@H]5NC(=O)N[C@@H]54)nn3)cc2)c(O)c(O)c1-c1ccc(O)cc1
[11]
  inhibition: Active
[2]
  Activity: Active
[12]
  inhibition: Active
[13]
  Activity: Active
[14]
  inhibition: inactive
